Laboratory results reported in patent publication US20120136033A1, “Small Molecule Antagonists of Phosphatidylinositol-3,4,5-Triphosphate (PIP3) and Uses Thereof” (President and Fellows of Harvard College, priority 2009, published 2012).

Legend:
Akt PH domain = target: T1, Akt PH domain (Homo sapiens, UniProt P31749); assay: PH domain translocation assay, GFP-fused Akt PH domain; type: cell-based; details: 100 μM, 2 hr, PDGF stimulation
T1 construct: Akt PH domain-GFP, VAV2-GFP and VAV3-GFP vectors were generous gifts of Dr. Joanne Brugge; expressed in transfected cells
T1 sequence (P31749 5-108 limits assumed): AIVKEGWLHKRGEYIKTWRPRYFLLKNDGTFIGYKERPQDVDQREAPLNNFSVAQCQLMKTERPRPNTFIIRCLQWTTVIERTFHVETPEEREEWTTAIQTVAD
Description: Cells were transfected with the corresponding GFP-fusion vectors, serum starved overnight, and incubated with 100 μM PITs or PIT-1is for 2 hr, followed by stimulation with 100 ng/ml PDGF or 250 ng/ml PMA for 5 min. The translocation was analyzed using fluorescent microscope and was quantitated by counting the number of cells with translocated PH domains in five random fields.
To begin characterizing cellular activity of PITs, a PH domain translocation assay was performed, measuring PIP3-induced association of GFP-fused PH domains with the plasma membrane. This method provides useful means for monitoring status of the PH domain/PIP3 binding in the intact cells. Varnai P et al. (1999) J Biol Chem 274:10983-9. Several PH-domain-containing proteins, which are known to bind PIP3 specifically and efficiently, were examined. […] Oikawa T et al. (2004) Nat Cell Biol 6:420-6.

cancer cells = type: cell-based
U87MG cells = assay: cell death with pan-caspase inhibitor zVAD.fmk, Sytox assay; type: cell-based, human; details: 100 μM zVAD.fmk, 24 hr
Description: FIG. 11 is a bar graph depicting that cell death triggered by PIT-1 alone or in combination with TRAIL is inhibited by pan-caspase inhibitor zVAD.fmk. U87MG cells were incubated with or without 100 μM zVAD.fmk together with PIT-1 (25, 50, 100 μM) in the presence or absence of 10 ng/ml TRAIL for 24 hr, and analyzed by Sytox cell death assay.
Based on the critical role of PIP3-dependent Akt signaling in the regulation of cell survival, the effect of PIT-1 on the cancer cell viability was tested. […] For the ATP assay, a luminescence-based commercial kit (CellTiter-Glo, Promega, Madison, Wis.) was used. Thirty microliters of cell lysis/ATP detection reagent was added to each well, mixed for 10 min at room temperature, and the luminescence was measured using a Wallac Victor 3 plate reader (Perkin-Elmer, Wellesley, Mass.). […] Twenty microliters of the combined MTS/PMS solution was added into each well, incubated for 4 hr at 37° C., and the absorbance at 490 nm was measured using a Wallac Victor 3 plate reader. For the Sytox cell death assay, measuring loss of plasma membrane integrity, cells were incubated with 1 μM Sytox Green reagent (Molecular Probes, Eugene, Oreg.) for 30 min at 37° C. and the fluorescence intensity was measured using Wallac Victor 3 plate reader with excitation at 485 nm and emission at 545 nm. […]

SUM159 cells = assay: actin polymerization and ruffling/lamellipodia formation in SUM159 cells; type: cell-based, human; details: 25, 50, 100 μM PITs or 100 μM PIT-1is, 8 hr; PDGF 15 min
Description: In one set of experiments, the ability of PITs to inhibit actin polymerization and ruffling/lamellipodia formation was examined in SUM159 cells. Cells were serum starved and treated with PITs (25, 50 100 μM) or PIT-1is (100 μM) for 8 hr, followed by PDGF (100 ng/ml) stimulation for 15 min. Cells were fixed and stained with TRITC-phalloidin to visualize actin fibers, followed by fluorescent microscopy analysis. The number of cells with ruffles/lamellipodia was counted in five random fields.

Rac1 = Rac1 activation pull-down (GST-Pak1-PBD) in SUM159 cells; type: cell-based, human; details: 2 hr, PDGF 100 ng/ml
Description: Rho/Rac family, especially Rac1, plays a critical role in actin polymerization, membrane ruffling/lamellipodia formation, and cell motility (Ridley A J et al. (1992) Cell 70:401-410) downstream of the GEFs, e.g., VAV family, and upstream of the WAVE family. The effect of PITs on Rac1 activation was therefore analyzed. SUM159 cells were seeded on 10 cm^2 plates and serum starved overnight, treated with different PIT compounds at a variety of concentrations for 2 hr, and then stimulated with 100 ng/ml PDGF for […]. Next, cells were rinsed once with PBS, and 1 ml lysis buffer (25 mM Tris-HCl, pH 7.5, 150 mM NaCl, 5 mM MgCl2, 1% NP-40, 1 mM DTT, 5% glycerol, 1 μg/ml aprotinin, 1 μg/ml leupeptin and 1 mM PMSF) was added per plate. The cells were scraped and transferred to a microcentrifuge tube, vortexed briefly, and incubated on ice for 5 min, followed by a centrifugation at 16,000×g at 4° C. for 15 min. The supernatant was collected. A sample of the lysate was used to ensure equal protein concentration in the samples. Next, 700 μl lysate, 20 μl glutathione-sepharose beads, and 20 μg GST-human Pak1-PBD were mixed together, and the reaction mixture was incubated at 4° C. for 1 hr with gentle rocking. The beads were then washed three times with lysis buffer, and proteins were eluted by boiling beads in 50 μl of the 2×SDS sample buffer at 95-100° C. for 5 min. […]

cells = assay: subG1 DNA content; type: cell-based; details: P<0.01
Text: Since PI3K/PIP3/Akt signaling plays a critical role in the inhibition of apoptosis (Datta S R et al. (1999) Genes Dev 13:2905-27), the possibility that PITs induce apoptosis was examined. […] Proapoptotic Bcl-2 family members Bax and Bak are important mediators of apoptosis. Wei M C et al. (2001) Science 292:727-30. […] Non-apoptotic mechanisms of cell death may also play some additional, albeit less important, role in PIT-induced killing, as some cell death was still observed in Bax/Bak-deficient cells and in the presence of zVAD.fmk.

| Structure (SMILES) | inhibition of translocation of Akt PH domain to the plasma membrane (Akt PH domain) | cancer cell invasion through matrigel (cancer cells) | cytotoxic effects at the low concentrations used in migration and invasion experiments (cancer cells; P>0.05) | cell death alone or with TRAIL in presence of zVAD.fmk (U87MG cells) | PDGF-induced membrane ruffling in SUM159 cells (SUM159 cells) | activation of Rac1 caused by growth factor stimulation (Rac1) | subG1 DNA content in cells (cells) |
| --- | --- | --- | --- | --- | --- | --- | --- |
| O=C(NC(=S)Nc1cc([N+](=O)[O-])cc(Cl)c1O)c1ccccc1 [PIT-1] | significantly inhibited | efficiently suppressed | no significant cytotoxic effects | inhibited by a pan-caspase inhibitor zVAD.fmk | efficiently inhibited | efficiently suppressed | significant increase |
| O=C1NC(=S)S/C1=C\c1cc(O)c([N+](=O)[O-])cc1Cc1ccccc1 [PIT-2] | significantly inhibited | efficiently suppressed | – | inhibited by a pan-caspase inhibitor zVAD.fmk | efficiently inhibited | efficiently suppressed | significant increase |
